Assay results: PubChem BioAssay (NCI)
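Values below derive from 48-hour exposures of cells grown in 96-well plates, with endpoints linearly interpolated between the two concentrations bracketing the appropriate inhibition level. The concentration for 50% growth inhibition is given as GI50. TGI: concentration producing complete growth inhibition.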

What was measured:
Assay in all cases: inhibition of tumour cell growth, NCI panel, 48 h
[1] = system: SW-620 colon
[2] = system: COLO 205 colon
[3] = system: SR leukemia
[4] = system: BT-549 breast
[5] = system: SK-MEL-5 melanoma
[6] = system: SNB-75 CNS
[7] = system: OVCAR-8 ovarian
[8] = system: NCI/ADR-RES ovarian
[9] = system: IGROV1 ovarian
[10] = system: UACC-62 melanoma
[11] = system: NCI-H522 lung
[12] = system: RXF 393 renal
[13] = system: CAKI-1 renal
[14] = system: ACHN renal
[15] = system: MOLT-4 leukemia

Compound | TGI [1] [µM] | TGI [2] [µM] | TGI [3] [µM] | TGI [4] [µM] | TGI [5] [µM] | TGI [6] [µM] | TGI [7] [µM] | TGI [8] [µM] | TGI [9] [µM] | TGI [10] [µM] | TGI [11] [µM] | TGI [12] [µM] | TGI [13] [µM] | TGI [14] [µM] | TGI [15] [µM] | GI50 [4] [nM] | GI50 [5] [nM] | GI50 [6] [nM] | GI50 [13] [nM] | GI50 [14] [nM]
Cc1nc(Nc2ccc(F)cc2)c2sc(=S)n(-c3ccc(F)cc3)c2n1 | 21.4 | 27.5 | > 100 | 27.1 | 27.7 | 29.6 | 35.9 | 37.3 | 22.4 | 29.6 | 30.1 | 25.1 | 35.5 | 27 | – | – | – | – | – | –
Nc1ccc(C2NC(=O)Cc3c2ccc2ccccc32)cc1 (stereo unspecified) | > 100 | > 100 | > 100 | – | > 100 | > 100 | > 100 | – | > 100 | > 100 | > 100 | – | > 100 | > 100 | > 100 | – | – | – | – | –
CCCCNc1c(CN)cnc2cc(Cl)ccc12 | 33.5 | 21.5 | – | 31.8 | 29.3 | 42.3 | 33.8 | 32 | 34.4 | 29 | 34.5 | 29.5 | 65.7 | 58.7 | 36.5 | – | – | – | – | –
Nc1ccc2nc3ccc(N)cc3[n+](-c3ccccc3)c2c1 | > 100 | 26.9 | > 100 | > 100 | 96.4 | > 100 | – | > 100 | > 100 | > 100 | > 100 | > 100 | > 100 | > 100 | – | – | – | – | – | –
O=C(O)CSCC(=O)O | > 100 | – | > 100 | > 100 | > 100 | > 100 | > 100 | > 100 | > 100 | > 100 | > 100 | > 100 | > 100 | > 100 | > 100 | – | – | – | – | –
c1ccc(C(c2ccccc2)[P+](c2ccccc2)(c2ccccc2)c2ccccc2)cc1 | 13.2 | 1.2 | – | – | 1.15 | 5.17 | 13.5 | > 100 | 8.64 | 3.56 | 1.14 | 10.6 | 8.47 | – | 4.06 | – | – | – | – | –
CC(=O)Oc1ccc2c(C)cc(=O)oc2c1 | > 100 | > 100 | > 100 | > 100 | > 100 | > 100 | > 100 | > 100 | > 100 | > 100 | > 100 | > 100 | > 100 | > 100 | > 100 | – | – | – | – | –
Cc1ccc2cc3c(ccc4ccccc43)c3c2c1CC3 | > 100 | > 100 | > 100 | > 100 | > 100 | > 100 | > 100 | > 100 | > 100 | > 100 | > 100 | > 100 | > 100 | > 100 | > 100 | – | – | – | – | –
COc1ccc2oc(=O)cc(C)c2c1 | > 100 | > 100 | > 100 | > 100 | > 100 | > 100 | > 100 | > 100 | > 100 | > 100 | > 100 | > 100 | > 100 | > 100 | > 100 | – | – | – | – | –
CS/C(=N\C(=S)Nc1ccccc1)Nc1ccccc1 | > 100 | 78.1 | 64.1 | – | 21.5 | 84.7 | 77.4 | – | 97.6 | 53.6 | 38 | 48.4 | 54.7 | 70.7 | 85.7 | – | – | – | – | –
N=C(N)C(N=Nc1ccccc1)C(N)=O (stereo unspecified) | > 100 | > 100 | – | > 100 | > 100 | > 100 | > 100 | > 100 | > 100 | > 100 | > 100 | > 100 | > 100 | > 100 | > 100 | – | – | – | – | –
FC(F)(F)C(C1=NC(C(F)(F)F)(C(F)(F)F)N=C(N2CCOCC2)O1)C(F)(F)F | 41.9 | 38.9 | 61.2 | 56 | 28.4 | > 100 | 47.3 | 49.4 | 57.1 | 33.5 | 46.2 | 37 | 61.6 | 49.3 | > 100 | – | – | – | – | –
COc1ccc(C2C(=O)C(Cl)N2Nc2nc(C)cc(=O)[nH]2)cc1OC (stereo unspecified) | > 100 | > 100 | > 100 | – | > 100 | 52.7 | > 100 | – | 70.2 | > 100 | – | > 100 | – | > 100 | > 100 | – | – | – | – | –
C=CC(=O)N1CCN(c2nc(OC[C@@H]3CCCN3C)nc3c2CCN(c2cccc4cccc(C)c24)C3)C[C@@H]1CC#N | – | – | – | 3.08 | 3.06 | 2.31 | – | – | – | – | – | – | 2.46 | 2.14 | – | 1580 | 1680 | 1090 | 1180 | 953
NC(=O)NO | > 2500 | > 2500 | 1620 | > 2500 | 2230 | 2310 | > 2460 | 2400 | > 2020 | 1560 | 2270 | 1880 | 1720 | 2060 | 2100 | – | – | – | – | –
COc1ccccc1N1C(Cl)C(=O)C1c1c[nH]c2ccccc12 (stereo unspecified) | > 100 | > 100 | > 100 | – | > 100 | > 100 | > 100 | – | > 100 | > 100 | > 100 | > 100 | – | – | > 100 | – | – | – | – | –
O=C(O)C(O)Cc1ccccn1 (stereo unspecified) | > 100 | > 100 | > 100 | > 100 | > 100 | – | > 100 | > 100 | > 100 | > 100 | > 100 | > 100 | > 100 | > 100 | – | – | – | – | – | –
CN(C)CCCNc1ncnc2nc[nH]c12 | > 100 | > 100 | – | > 100 | > 100 | – | > 100 | > 100 | > 100 | > 100 | > 100 | > 100 | > 100 | > 100 | > 100 | – | – | – | – | –
COc1cccc(Nc2nc(-c3cccs3)nc3ccc(Br)cc23)c1 | > 100 | > 100 | > 100 | > 100 | > 100 | – | > 100 | > 100 | > 100 | > 100 | > 100 | – | > 100 | > 100 | – | – | – | – | – | –
